From patent US20020043656A1, “GREEN ORGANIC LUMINOPHOR” (priority 2000, published 2002)
Like-named read-outs stand apart in the source and are kept apart here.

Tests used:
[1] = Fluorescence (luminescence) spectra; type: physicochemical; details: for Luminescence in toluene λmax: 365 nm excitation
Experimental: Fluorescence spectra in toluene were measured and absolute fluorescence quantum yields in crystals were determined.
The fluorescence spectra were measured using a setup including a 3MR-3 mirror monochromator, a FEU-1 8 photomultiplier, an M-95 microampermeter. A SVDT-95 lamp was used as the excitation source, the 365 nm exciting line was singled out of its spectrum.

[2] = Absolute fluorescence quantum yield, equal absorption technique; type: physicochemical
Experimental: The absolute quantum yield was determined using the equal absorption technique (A. S. Cherkasov, Z. Fiz. Khim. 29, 2209, […]).

[3] = Electron absorption spectra / extinction; type: physicochemical
Text: The compound structure was confirmed by electron absorption spectra and IR ones.

[4] = cited from earlier work; for Luminescence in toluene λmax: prior art analogs
[5] = cited from earlier work; for Luminescence in toluene η (quantum yield): prior art analogs; for quantum yield η: prior art, medium not stated
[6] = prior art; cited from earlier work
[7] = prior art, cited from earlier work
[8] = various reagents; prior art; cited from earlier work

| Luminescence in toluene λmax [1] | Luminescence in toluene λmax ([1]; listed as Example 1) | λmax.lum ([1]; medium not stated) | Luminescence in toluene η (quantum yield) ([2]; in toluene solution) | quantum yield ([2]; medium not stated) | quantum yield of photoluminescence η ([2]; solid state (vacuum-deposited film)) | maximum absorption (extinction coefficient) [3] | Absorption λ ([3]; in toluene) | Compound | Luminescence in toluene λmax [4] | λmax.lum ([4]; prior art, medium not stated) | Luminescence in toluene η (quantum yield) [5] | quantum yield η [5] | luminescence spectral maximum wavelength ([4]; depending on the luminophor concentration) | Luminescence in toluene η (quantum yield) ([5]; listed as Lumogen yellow-green) | extinction coefficient in the absorption maximum [6] | solubility in organic media ([7]; organic media) | solubility in water ([7]; water) | chemical stability [8] |
| --- | --- | --- | --- | --- | --- | --- | --- | --- | --- | --- | --- | --- | --- | --- | --- | --- | --- | --- |
| 510 nm | 495 nm | > 510 nm | 0.85 | approximately 0.82+0.05 | 0.78 | ≤ 30,000 | 412 nm | 1-phenyl-5-(p-methoxyphenyl)-3-[1,8-naphthoylene-1′,2′-benzimidazol-4-yl]-2-pyrazol | – | – | – | – | – | – | – | – | – | – |
| – | – | – | – | – | – | – | – | COc1cccc2c(-c3ccc(N(C)C)cc3)c3nn(C)cc3nc12 [Prior art structure analog, 2-methyl-5-methoxy-9-(4-dimethylaminophenyl)-2H-pyrazolo[4,3-b]quinoline] | 510 nm | 510 nm | 0.8 | 0.8 | – | – | – | – | – | – |
| – | – | – | – | – | – | – | – | O=c1c2cccc3cccc(c32)c2nc3ccccc3n12 [Prior art emission range analog, 1,8-naphthoylene-1′,2′-benzimidazol] | 490 nm | – | 0.5 | > 0.5 | 490 to 510 nm | > 0.5 | 8000 | soluble in organic media | essentially water-insoluble | chemically stable against various reagents |
